Assay results reported in article PMC7059547, “Synthesis and herbicidal activities of aryloxyacetic acid derivatives as HPPD inhibitors” (Beilstein Journal of Organic Chemistry, 2020).
“Also recorded” adds a separate entry of the source. Read-outs that look alike come from different tables or passages of the source.

Experiments:
[1] = molecular target: T1, Arabidopsis thaliana HPPD (AtHPPD) (Arabidopsis thaliana, UniProt P93836); experiment: AtHPPD enzyme inhibition study; type: biochemical
T1 construct: made in house
T1 sequence (P93836 1-445): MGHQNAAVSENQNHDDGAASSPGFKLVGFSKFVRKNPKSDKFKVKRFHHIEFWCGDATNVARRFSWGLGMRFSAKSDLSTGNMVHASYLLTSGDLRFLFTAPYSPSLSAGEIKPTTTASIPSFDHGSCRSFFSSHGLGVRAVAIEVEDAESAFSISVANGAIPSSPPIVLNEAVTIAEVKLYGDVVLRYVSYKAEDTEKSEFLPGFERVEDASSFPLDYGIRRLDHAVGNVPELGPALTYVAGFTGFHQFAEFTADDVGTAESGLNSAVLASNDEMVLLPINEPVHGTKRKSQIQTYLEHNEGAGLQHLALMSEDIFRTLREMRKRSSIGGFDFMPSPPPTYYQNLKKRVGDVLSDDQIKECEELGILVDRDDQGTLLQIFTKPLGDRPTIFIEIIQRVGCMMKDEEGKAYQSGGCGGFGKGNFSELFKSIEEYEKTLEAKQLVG
Protocol: AtHPPD was prepared and puriﬁed according to the reported methods in the literature [19–2035–37].

[2] = tested on: E. crus-galli, S. faberii, D. sanguinalis, A. retroflexus, E. prostrata, A. juncea; experiment: Post-emergence greenhouse herbicidal activity; type: in vivo; design: Sum of inhibition rate: scale not given here; conditions: 150 g ai/ha; for Sum of inhibition rate / herbicidal activity (in words): post-emergence; for Sum of inhibition rate: sum over six weeds (AJ, AR, EP, DS, EC, SF), 18 days after treatment
[3] = tested on: rice; experiment: Postemergence crop safety, rice; type: in vivo; conditions: 150 g ai/ha, four-leaf stage, after 15 days
Protocol: (§1) The representative crops, rice, wheat, maize, cotton, soybean, and canola were selected to test the crop safety of compound II3, II4, and II5. The six crops were separately planted in ﬂowerpots (12 cm diameter) containing the composite nutrient soil and grown at room temperature. When the crops had reached the four-leaf stage, the safety experiments were conducted at the rate of 150 g ai/ha. After 15 days, the ﬁnal results of crop safety were evaluated with two duplicates per experiment (Table 3).

[4] = tested on: wheat; experiment: Postemergence crop safety, wheat; type: in vivo; conditions: 150 g ai/ha; for % injury wheat: postemergence, four-leaf stage, after 15 days
Protocol: as §1

[5] = tested on: maize; experiment: Postemergence crop safety, maize; type: in vivo; conditions: 150 g ai/ha; for % injury maize: postemergence, four-leaf stage, after 15 days
Protocol: as §1

[6] = tested on: cotton; experiment: Postemergence crop safety, cotton; type: in vivo; conditions: 150 g ai/ha, four-leaf stage, after 15 days
Protocol: as §1

[7] = tested on: soybean; experiment: Postemergence crop safety, soybean; type: in vivo; conditions: 150 g ai/ha, four-leaf stage, after 15 days
Protocol: as §1

[8] = tested on: canola; experiment: Postemergence crop safety, canola; type: in vivo; conditions: 150 g ai/ha, four-leaf stage, after 15 days
Protocol: as §1

Structure (SMILES)	Ki ([1]; read-out: AtHPPD inhibition Ki) [µM]	Sum of inhibition rate [2]	also measured
Cn1nc(C2CC2)c(C(=O)COc2ccccc2[N+](=O)[O-])c1O [I15]	0.27 ± 0.004	40	
Cn1nc(C2CC2)c(C(=O)COc2nc(Cl)c(Cl)cc2Cl)c1O [II4]		520	Ki [1]: 0.023 ± 0.006 µM; herbicidal activity (in words) [2]: broad-spectrum herbicidal activities; also recorded: slightly higher herbicidal activity than mesotrione; also recorded: excellent herbicidal activities; herbicidal activity for pre-emergence treatment (in words) ([2]; pre-emergence treatment as printed in the abstract): slightly better than that of mesotrione; % injury rice [3]: 30%; % injury wheat [4]: 50%; crop tolerance / safety of maize (in words) [5]: safe for weed control in maize fields; also recorded: tolerance; also recorded: safe for use on maize; % injury maize [5]: 10%; % injury cotton [6]: 60%; % injury soybean [7]: 30%; % injury canola [8]: 100%
CS(=O)(=O)c1ccc(C(=O)C2C(=O)CCCC2=O)c([N+](=O)[O-])c1 [mesotrione, reference compound]	0.013 ± 0.001	510	% injury rice [3]: 50%; % injury wheat [4]: 40%; % injury maize [5]: 10%; % injury cotton [6]: 80%; % injury soybean [7]: 50%; % injury canola [8]: 100%
Cn1nc(C(F)(F)F)c(C(=O)COc2c(Cl)cc(Cl)cc2Cl)c1O [I12]		335	herbicidal activity (in words) [2]: poorer than expected herbicidal activity
Cn1nc(C(F)(F)F)c(C(=O)COc2nc(Cl)c(Cl)cc2Cl)c1O [II5]		415	Ki [1]: 0.12 ± 0.003 µM; herbicidal activity (in words) [2]: excellent herbicidal activities; % injury rice [3]: 50%; % injury wheat [4]: 50%; % injury maize [5]: 30%; % injury cotton [6]: 90%; % injury soybean [7]: 70%; % injury canola [8]: 100%
Cn1nc(C(F)(F)F)c(C(=O)COc2ccc(Cl)cc2)c1O [I6]	0.93 ± 0.032	180	
Cn1nc(C(F)(F)F)c(C(=O)COc2ccccc2Cl)c1O [I4]	0.59 ± 0.043	40	
Cn1nc(C2CC2)c(C(=O)COc2ccccc2)c1O [I1]	1.5 ± 0.031	60	
Cc1nn(C)c(O)c1C(=O)COc1c(Cl)cc(Cl)cc1Cl [I10]	0.24 ± 0.003	60	
Cn1nc(C(F)(F)F)c(C(=O)COc2ccccc2)c1O [I2]	1.3 ± 0.017	40	
Cc1nn(C)c(O)c1C(=O)COc1ccccc1[N+](=O)[O-] [I14]	0.21 ± 0.042	40	
COc1cc(C)ccc1OCC(=O)c1c(C2CC2)nn(C)c1O [I38]		50	Ki [1]: 2.9 ± 0.038 µM
Cn1nc(C(F)(F)F)c(C(=O)COc2ccccc2[N+](=O)[O-])c1O [I16]	0.44 ± 0.013	10	
Cn1nc(C2CC2)c(C(=O)COc2ccc(Cl)cc2Cl)c1O [I7]	0.36 ± 0.012	210	
Cn1nc(C2CC2)c(C(=O)COc2ccccc2Cl)c1O [I3]	0.36 ± 0.012	80	
COc1cc(C)ccc1OCC(=O)C1=C(O)CCCC1=O [I35]		40	Ki [1]: 3.3 ± 0.14 µM
COc1cc(C)ccc1OCC(=O)C1=C(O)CC(C)(C)CC1=O [I36]		20	Ki [1]: 3.4 ± 0.21 µM
O=C1CCCC(O)=C1C(=O)COc1ccc([N+](=O)[O-])cc1 [I17]	0.23 ± 0.004	80	
COc1cc(C)ccc1OCC(=O)c1c(C)nn(C)c1O [I37]		40	Ki [1]: 2.7 ± 0.53 µM
CC1(C)CC(=O)C(C(=O)COc2c(Cl)cc(Cl)cc2Cl)=C(O)C1 [I9]	0.31 ± 0.048	70	
Cn1nc(C(F)(F)F)c(C(=O)COc2ccc(Cl)cc2Cl)c1O [I8]	0.22 ± 0.023	170	
CC1(C)CC(=O)C(C(=O)COc2ccc(Cl)cc2)=C(O)C1 [I5]	1 ± 0.036	110	
CC1(C)CC(=O)C(C(=O)COc2ccccc2[N+](=O)[O-])=C(O)C1 [I13]	0.45 ± 0.033	30	
Cn1nc(C2CC2)c(C(=O)COc2c(Cl)cc(Cl)cc2Cl)c1O [I11]	0.081 ± 0.001	335	

Now from value to compound, other results behind:

Ki ([1]; read-out: AtHPPD inhibition Ki) [µM]	Structure (SMILES)	Sum of inhibition rate [2]	also measured
3.1 ± 0.34	Cc1ccc(OCC(=O)C2=C(O)CC(C)(C)CC2=O)c(C)c1 [I31]	20	
0.21 ± 0.042	Cn1nc(C2CC2)c(C(=O)COc2cccnc2[N+](=O)[O-])c1O [III6]	60	
0.097 ± 0.01	CC1(C)CC(=O)C(C(=O)COc2nc(Cl)c(Cl)cc2Cl)=C(O)C1 [II2]	20	
1.02 ± 0.009	CC1(C)CC(=O)C(C(=O)COc2ccc([N+](=O)[O-])cc2Cl)=C(O)C1 [I22]	70	
0.26 ± 0.012	Cn1nc(C2CC2)c(C(=O)COc2ccc([N+](=O)[O-])cc2Cl)c1O [I24]	110	
2.8 ± 0.67	Cc1ccc(OCC(=O)c2c(C(F)(F)F)nn(C)c2O)c(C)c1 [I34]	30	
0.093 ± 0.007	O=C1CCCC(O)=C1C(=O)COc1nc(Cl)c(Cl)cc1Cl [II1]	50	
0.63 ± 0.002	Cc1nn(C)c(O)c1C(=O)COc1ccc([N+](=O)[O-])cc1 [I19]	100	
0.021 ± 0.004	Cc1nn(C)c(O)c1C(=O)COc1nc(Cl)c(Cl)cc1Cl [II3]	415	herbicidal activity (in words) [2]: broad-spectrum herbicidal activities; also recorded: excellent herbicidal activities; % injury rice [3]: 40%; crop tolerance of wheat (in words) [4]: high tolerance; % injury wheat [4]: 10%; crop tolerance / safety of maize (in words) [5]: high tolerance; % injury maize [5]: 10%; % injury cotton [6]: 60%; % injury soybean [7]: 50%; % injury canola [8]: 90%
2 ± 0.009	Cc1ccc(OCC(=O)c2c(C)nn(C)c2O)c(C)c1 [I32]	30	
0.012 ± 0.009	Cc1nn(C)c(O)c1C(=O)COc1ccc([N+](=O)[O-])cc1Cl [I23]	80	
2.2 ± 0.034	Cc1ccc(OCC(=O)C2=C(O)CCCC2=O)c(C)c1 [I30]	40	
0.5 ± 0.003	Cn1nc(C2CC2)c(C(=O)COc2ccc([N+](=O)[O-])cc2)c1O [I20]	60	
1.5 ± 0.041	Cn1nc(C(F)(F)F)c(C(=O)COc2ccc([N+](=O)[O-])cc2)c1O [I21]	100	
0.21 ± 0.043	Cn1nc(C(F)(F)F)c(C(=O)COc2ccc([N+](=O)[O-])cc2Cl)c1O [I25]	100	
0.93 ± 0.006	CC1(C)CC(=O)C(C(=O)COc2ccc([N+](=O)[O-])cc2)=C(O)C1 [I18]	70	
1.2 ± 0.031	Cc1nn(C)c(O)c1C(=O)COc1ccccc1 [I40]	50	
2 ± 0.012	Cn1nc(C(F)(F)F)c(C(=O)COc2ccc3ccccc3c2Br)c1O [III4]	90	
1.3 ± 0.056	O=C1CCCC(O)=C1C(=O)COc1ccccc1 [I39]	40	
2.8 ± 0.045	Cc1ccc(OCC(=O)c2c(C3CC3)nn(C)c2O)c(C)c1 [I33]	30	
0.23 ± 0.011	O=C1CCCC(O)=C1C(=O)COc1cccnc1[N+](=O)[O-] [III5]	50	
1.9 ± 0.001	O=C1CCCC(O)=C1C(=O)COc1cc(Cl)ccc1Oc1ccc(Cl)cc1Cl [I26]	30	
